Experimental data as given in US20160281125A1, “ANTIMICROBIAL COMPOUND SUSCEPTIBILITY TEST” (priority 2013, published 2016).

Legend:
E. coli 23848 = test: Selective lysis test, OD600 turbidity (Example 1); type: cell-based, Escherichia coli
Procedure: (§1) An isolated colony from an overnight Tryptocase Soy Agar (TSA) plate of each bacterial strain was suspended in 1 ml Tryptocasc Soy Broth (TSB) in a 5 ml BD polystyrene round bottom tube. TSB cultures were incubated shaking at 37° C. overnight. Ten of the overnight culture was inoculated into lml TSB and incubated shaking at 37° C. for three hours. Two […] aliquots of each log-phase culture were then transferred to two 2 ml Eppendorf microcentrifuge tubes. One tube contained 5000 of Normal Saline (BD); the second tube contained 5000 Normal Saline with meropenem at 10 μg/ml (final concentration of meropenem of 6.67 10 μg/ml). Tubes were inverted and then incubated at 37° C. stagnant for thirty minutes. Then […] of lysis buffer (0.5% SDS in PSB) (final concentration of SDS of 0.125%) was added to each tube and the tubes were vortexed for 5 seconds. Post incubation, all tubes were spun at 10000 G for 5 minutes. Supernatant was decanted and the pellet resuspended in Normal Saline. Tubes were vortexed again. OD600 was measured using Eppendorf uvettes in a spectrophotometer. The delta between the OD600 of the normal saline control and the OD600 for the test sample exposed to meropenem in normal saline was used to determine susceptibility of the bacterial strain to meropenem.

E. coli 25922 = test: Selective lysis test, OD600 turbidity (Example 1); type: cell-based, Escherichia coli
Procedure: as §1

E. coli 35218 = test: Selective lysis test, OD600 turbidity (Example 1); type: cell-based, Escherichia coli
Procedure: as §1

E. coli 51422 = test: Selective lysis test, OD600 turbidity (Example 1); type: cell-based, Escherichia coli
Procedure: as §1

E. coli ESBL 790 = test: Selective lysis test, OD600 turbidity (Example 1); type: cell-based, Escherichia coli
Procedure: as §1

E. coli ESBL Baa197 = test: Selective lysis test, OD600 turbidity (Example 1); type: cell-based, Escherichia coli; conditions: for % Change: OD600 vs control without meropenem
Procedure: as §1

E. coli JM109 = test: Selective lysis test, OD600 turbidity (Example 1); type: cell-based, Escherichia coli
Procedure: as §1

K. oxy 43086 = test: Selective lysis test, OD600 turbidity (Example 1); type: cell-based, Klebsiella oxytoca
Procedure: as §1

E. coli BAA-197 (ESBL) = test: Selective lysis test, OD600, meropenem and cefotaxime (Example 2); type: cell-based
Procedure: In this experiment the following strains were tested: strain K. pneumoniae 13882 (previously considered meropenem sensitive and cefotaxime sensitive); E. coli BAA-197 (ESBL) (which expresses an extended-spectrum (beta)-lactamase enzyme and was previously considered meropenem sensitive and cefotaxime resistant); K. pneumoniae BAA-1705 (KPC) (which expresses a carbapenemase enzyme and was previously considered meropenem resistant and cefotaxime resistant); and K. pneumoniae BAA-2146 (NDM1) (which expresses the metallo-beta-lactamase-1 enzyme and was previously considered meropenem resistant and cefotaxime resistant).
An isolated colony from an overnight Tryptocase Soy Agar (TSA) plate of each bacteria was suspended in 1 ml Tryptocase Soy Broth (TSB) in a 5 ml BD polystyrene round bottom tube. TSB cultures were incubated at 37° C. for 1.5 hours shaking. Three 250 μl aliquots of each stationary-phase culture were then transferred to three 2 ml Eppendorf microcentrifuge tubes. One tube contained 500 μl of Normal Saline (BD); the second tube contained 500 μl Normal Saline with meropenem at 10 μg/ml; and the third tube contained 500 μl Normal Saline with cefotaxime (abbreviated […]) at 10 μg/ml. Tubes were inverted then incubated at 37° C. stagnant for thirty minutes. Then […] of lysis buffer (0.5% SDS in PSB) was added to each tube and each tube was vortexed for 5 seconds. Post incubation, all tubes were spun at 10000 G for 5 minutes. Supernatant was decanted and the pellet resuspended in Normal Saline. Tubes were vortexed. OD600 was measured using Eppendorf uvettes in a spectrophotometer. The delta between the control and the meropenem normal saline, or the control and the cefotaxime normal saline was used to determine susceptibility.

[1] = test system: K. pneumoniae strain 13882; test: Carbapenem test, Triton fixation buffer and BacUni QuickFISH staining (Example 4); type: cell-based; conditions: K. pneumoniae 13882
Procedure: An isolated colony from an overnight Tryptocase Soy Agar (TSA) plate for each bacteria was suspended in 1 ml Tryptocase Soy Broth (TSB) in a 5 ml BD polystyrene round bottom tube. TSB cultures were incubated at 37° C. for 1.5 hours shaking. […] of each stationary-phase culture were transferred to 2 ml Eppendorf microcentrifuge tubes containing 500 μl of Normal Saline (BD); or 500 μl Normal Saline with imipenem, ertapenem, or meropenem at a concentration of […], […], or 40 μg/ml (26.67 μg/ml final concentration). Tubes were inverted then incubated at 37° C. stagnant for thirty minutes. Then 10 μl from each tube was pipetted onto plain glass slide on a 55° C. heat block, followed by 25 μl fixation buffer (0.5% T×100, 100 mM Tris pH 9, 24% Ethanol, and 10 mM NaCl); slide is incubated until sample is dry. Ten μl of BacUni QuickFISH hybridization buffer was added to each slide followed by a 22×22 mm coverslip. The slide was then incubated at 55° C. for 15 minutes. The slides were viewed on a fluorescence microscope 60× oil immersion on Dual TxR/FITC. Images were taken with a 1 second exposure.
The control fixation in this experiment has all the same components, except no Triton X-100. This was done to assess whether the selective lysis step is required to resolve a difference between susceptible and resistant bacteria.

[2] = test system: strains previously considered resistant to meropenem; test: Selective lysis OD600 test, summary over the strains of Table 2; type: cell-based, Klebsiella pneumoniae, Klebsiella oxytoca; conditions: 8 of the 9 strains of Table 2
Procedure: as §1, with “meropenem. […]” for “meropenem.”

[3] = OD600 vs control without meropenem
[4] = meropenem 10 μg/ml, 30 min, SDS lysis buffer + vortex

C[C@@H](O)[C@H]1C(=O)N2C(C(=O)O)=C(S[C@@H]3CN[C@H](C(=O)N(C)C)C3)[C@H](C)[C@H]12 [meropenem]
R or S (E. coli 23848): S (a percentage change of greater than about 85% indicates a strain is susceptible) | % Change (E. coli 23848; [3]): 97% | Mero OD600 (E. coli 23848; [4]): 0.021 | R or S (E. coli 25922): S (a percentage change of greater than about 85% indicates a strain is susceptible) | % Change (E. coli 25922; [3]): 97% | Mero OD600 (E. coli 25922; [4]): 0.064 | R or S (E. coli 35218): S (a percentage change of greater than about 85% indicates a strain is susceptible) | % Change (E. coli 35218; [3]): 90% | Mero OD600 (E. coli 35218; [4]): 0.1 | R or S (E. coli 51422): S (a percentage change of greater than about 85% indicates a strain is susceptible) | % Change (E. coli 51422; [3]): 98% | Mero OD600 (E. coli 51422; [4]): 0.031 | R or S (E. coli ESBL 790): S (a percentage change of greater than about 85% indicates a strain is susceptible) | % Change (E. coli ESBL 790; [3]): 87% | Mero OD600 (E. coli ESBL 790; [4]): 0.126 | R or S (E. coli ESBL Baa197): S (a percentage change of greater than about 85% indicates a strain is susceptible) | % Change (E. coli ESBL Baa197): 74% | % Change (E. coli ESBL Baa197; listed as Mero): 74% | Mero OD600 (E. coli ESBL Baa197; [4]): 0.236 | R or S (E. coli JM109): S (a percentage change of greater than about 85% indicates a strain is susceptible) | % Change (E. coli JM109; [3]): 88% | Mero OD600 (E. coli JM109; [4]): 0.079 | R or S (K. oxy 43086): S (a percentage change of greater than about 85% indicates a strain is susceptible) | % Change (K. oxy 43086; [3]): 99% | Mero OD600 (K. oxy 43086; [4]): 0.02 | assay score (sensitive or resistant) (E. coli BAA-197 (ESBL)): sensitive | % diff (E. coli BAA-197 (ESBL); OD600 vs control): 87.3% | OD600 (E. coli BAA-197 (ESBL); antibiotic 10 μg/ml, 30 min, SDS lysis buffer + vortex, 1.5 h culture): 0.046 | BacUni QuickFISH stained intact cells after meropenem and fixation buffer ([1]; FIG. 7, 10 μg/ml meropenem, fixation buffer with 0.5% Triton X-100): near complete absence of BacUni QuickFISH™ stained intact cells | test result (susceptibility or resistance) by BacUni QuickFISH staining ([1]; FIG. 10, 10 μg/ml): detect susceptibility | decrease of OD600 turbidity vs negative control [2]: ≤ 18%
